Reference: patent US4534978A, “Perfluorocycloamines” (The Green Cross Corporation, priority 1984, dated 1985)

Assays:
Acute Toxicity Test = type: in vivo, Wister-strain male rats; settings: emulsion i.v., 100 ml/kg-body weight, observed one week, male rats
Protocol: The acute toxicity test on the preparations of the present invention was carried out using the preparations of the present invention shown in Table 4 which had been physiologically isotonized. The test animals used were Wister-strain male rats (weighing 100-120 g).
The results are such that with either emulsion containing perfluoro-N-cyclohexylprrolidine or perfluoro-N-(3'-methylcyclohexyl)pyrrolidine, thre was no death case at 100 ml/kg-body weight and thus their toxicity are very small.

[1] = Distribution of Perfluoro-compound in Organs; type: in vivo, Wister-strain male rats; settings: 4 g/kg into the tail vein, male rats
Text: The content of perfluoro-N-cyclohexylpyrrolidine uptake in each organ 1, 2 and 4 weeks and 3 months after the administration are shown in Table 5.

FC(F)(F)C1(F)C(F)(F)C(F)(F)C(F)(F)C(F)(N2C(F)(F)C(F)(F)C(F)(F)C2(F)F)C1(F)F (stereo not drawn) [Example 38, perfluoro-N-(3'-methylcyclohexyl)pyrrolidine]
death cases (Acute Toxicity Test): no death case | toxicity (Acute Toxicity Test): very small

FC1(F)N(C2(F)C(F)(F)C(F)(F)C(F)(F)C(F)(F)C2(F)F)C(F)(F)C(F)(F)C1(F)F [Example 1, perfluoro-N-cyclohexylpyrrolidine]
death cases (Acute Toxicity Test): no death case | toxicity (Acute Toxicity Test): very small | adverse influence on the liver or spleen organ [1]: no evidence of adverse influence on the liver or spleen organ | uptake by the reticulo-endothelial organs and disappearance [1]: taken up in greater amounts by the reticulo-endothelial organs shortly after the administration, but soon disappeared rapidly | Residual Rate of perfluoro-compound ([1]; Liver, 1 week after administration): 21.23% | Residual Rate of perfluoro-compound ([1]; Liver, 2 weeks after administration): 13.63% | Residual Rate of perfluoro-compound ([1]; Liver, 3 months after administration): 0.24% | Residual Rate of perfluoro-compound ([1]; Liver, 4 weeks after administration): 4.98% | Residual Rate of perfluoro-compound ([1]; Spleen, 1 week after administration): 12.33% | Residual Rate of perfluoro-compound ([1]; Spleen, 2 weeks after administration): 10.49% | Residual Rate of perfluoro-compound ([1]; Spleen, 3 months after administration): 0.51% | Residual Rate of perfluoro-compound ([1]; Spleen, 4 weeks after administration): 8.52% | half-life ([1]; rat, in vivo, iv, 4000 mg/kg, calculated): 16 days
